Assay results published in patent publication US10913736B2 (UNIVERSITY OF WASHINGTON, priority 2014, dated 2021).
pEC50, pIC50: −log10 of the molar value. “And” between values parts separate entries of the source, which are not always exact repeats. Equal values may be shown once.

Assays:
[1] = system: T. brucei; assay: Growth inhibition assay of T. brucei cell cultures (Alamar Blue, 48 h); assay type: cell-based; settings: Trypanosoma brucei; read-out: B) T. brucei EC50
[2] = target: MetRS (T. brucei) (Trypanosoma brucei brucei, UniProt Q38C91); assay: MetRS (T. brucei) ATP depletion assay using Kinase-Glo; assay type: biochemical
Chain of MetRS (T. brucei) (Q38C91 entry or part of it): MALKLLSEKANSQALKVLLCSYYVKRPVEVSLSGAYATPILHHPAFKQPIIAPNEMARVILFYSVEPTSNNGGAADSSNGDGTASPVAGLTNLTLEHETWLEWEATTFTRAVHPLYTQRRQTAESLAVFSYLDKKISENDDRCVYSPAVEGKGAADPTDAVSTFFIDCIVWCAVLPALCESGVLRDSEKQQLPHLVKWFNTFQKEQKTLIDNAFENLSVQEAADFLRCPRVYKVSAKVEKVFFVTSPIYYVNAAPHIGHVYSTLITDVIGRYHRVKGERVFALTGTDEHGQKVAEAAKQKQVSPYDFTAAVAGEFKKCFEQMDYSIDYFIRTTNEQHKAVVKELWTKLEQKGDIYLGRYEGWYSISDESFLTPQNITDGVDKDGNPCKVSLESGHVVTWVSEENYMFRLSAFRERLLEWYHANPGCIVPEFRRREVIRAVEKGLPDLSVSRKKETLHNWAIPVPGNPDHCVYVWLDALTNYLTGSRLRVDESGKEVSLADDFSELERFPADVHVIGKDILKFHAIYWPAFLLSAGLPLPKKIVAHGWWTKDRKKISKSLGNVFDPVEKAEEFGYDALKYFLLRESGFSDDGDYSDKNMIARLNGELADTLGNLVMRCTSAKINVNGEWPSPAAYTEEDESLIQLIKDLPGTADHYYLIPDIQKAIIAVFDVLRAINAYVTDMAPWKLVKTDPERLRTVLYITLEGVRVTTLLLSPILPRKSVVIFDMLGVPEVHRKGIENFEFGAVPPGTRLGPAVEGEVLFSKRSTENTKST

Compound | pEC50 [1] | pIC50 [2]
O=C1CN(Cc2cccc(Cl)c2)CCN1Cc1nc2ccccc2[nH]1 [Compound 1736, 1-((1H-benzo[d]imidazol-2-yl)methyl)-4-(3-chlorobenzyl)piperazin-2-one] | < 4.70 | < 5.00
N[C@@H](COc1ccc(Cl)cc1Cl)C(=O)NCc1nc2ccccc2[nH]1 [Compound 1807, (S)—N-((1H-benzo[d]imidazol-2-yl)methyl)-3-(2,4-dichlorophenoxy)-2-aminopropanamide] | 5.43 | 5.81
O=C(NCc1nc2nc(Cl)ccc2[nH]1)Nc1ccc(Cl)cc1Cl [Compound 1891, 3-({5-chloro-3H-imidazo[4,5-b]pyridin-2-yl}methyl)-1-(2,4-dichlorophenyl)urea] | < 4.70 | 5.41
NC(Cc1nc2ccccc2[nH]1)C(=O)NCCc1ccc(Cl)cc1Cl (stereo not drawn) [Compound 1795, N-(2,4-dichlorophenethyl)-2-amino-3-(1H-benzo[d]imidazol-2-yl)propanamide] | 4.91 | < 5.00
Clc1cc(Cl)cc(CN2CCCC(Cc3nc4nc(Cl)ccc4[nH]3)C2)c1 (stereo not drawn) [Compound 1814, 5-chloro-2-((1-(3,5-dichlorobenzyl)piperidin-3-yl)methyl)-1H-imidazo[4,5-b]pyridine] | 5.14 | 5.47
O=C(Cc1cc(Cl)cc(Cl)c1)N1CCCC(c2nc3cc(Cl)c(Cl)cc3[nH]2)C1 (stereo not drawn) [Compound 1745, 1-(3-(5,6-dichloro-1H-benzo[d]imidazol-2-yl)piperidin-1-yl)-2-(3,5-dichlorophenyl)ethanone] | 5.34 | 6.09
CC(=O)N(Cc1ccc(Cl)cc1Cl)C1CCCC(c2nc3nc(F)ccc3[nH]2)C1 (stereo not drawn) [Compound 1836, N-(2,4-dichlorobenzyl)-N-(3-(5-fluoro-1H-imidazo[4,5-b]pyridin-2-yl)cyclohexyl)acetamide] | 5.12 | 5.84
O=C(NCc1cc(Cl)cc(Cl)c1)N1CCCC(c2nc3nc(Cl)ccc3[nH]2)C1 (stereo not drawn) [Compound 1785, 3-(5-chloro-1H-imidazo[4,5-b]pyridin-2-yl)-N-(3,5-dichlorobenzyl) piperidine-1-carboxamide] | < 4.70 | < 5.00
CC(C)Oc1c(Cl)cc(Cl)cc1CN[C@H]1CCCN(c2nc3nc(Cl)ccc3[nH]2)C1 [Compound 1931, (S)-1-(5-chloro-1H-imidazo[4,5-b]pyridin-2-yl)-N-(3,5-dichloro-2-isopropoxybenzyl)piperidin-3-amine] | 5.77 | 6.52
Clc1cc(Cl)cc(CNCCSc2nc3nc(Cl)ccc3[nH]2)c1 [Compound 1896, [2-({5-chloro-1H-imidazo[4,5-b]pyridin-2-yl}sulfanyl)ethyl][(3,5-dichlorophenyl)methyl]amine] | 5.85 | 5.98
Nc1nc(Cl)ccc1NC(=O)C1CN(C(=O)Cc2cc(Cl)cc(Cl)c2)CCN1 (stereo not drawn) [Compound 1791, N-(2-amino-6-chloropyridin-3-yl)-4-(2-(3,5-dichlorophenyl)acetyl) piperazine-2-carboxamide] | < 4.70 | 5.07
Clc1cc(Cl)cc(CN[C@H]2CCCN(C3=NCc4ccccc4N3)C2)c1 [Compound 1961] | 5.42 | 6.92
Clc1cc(Cl)cc(CNC2CN(c3nc4nc(Cl)c(Br)cc4[nH]3)C2)c1 [Compound 1865, 1-{6-bromo-5-chloro-1H-imidazo[4,5-b]pyridin-2-yl}-N-[(3,5-dichlorophenyl)methyl]azetidin-3-amine] | 5.18 | < 5.00
O=C(Cc1cc(Cl)cc(Cl)c1)NCc1nc2ncc(Cl)cc2[nH]1 [Compound 1877, N-({6-chloro-1H-imidazo[4,5-b]pyridin-2-yl}methyl)-2-(3,5-dichlorophenyl)acetamide] | 5.06 | 6.72
Clc1cc(Cl)cc(CNC2CCCCN(c3nc4nc(Cl)ccc4[nH]3)C2)c1 (stereo not drawn) [Compound 1903, 1-(5-chloro-1H-imidazo[4,5-b]pyridin-2-yl)-N-(3,5-dichlorobenzyl) azepan-3-amine] | 5.74 | 6.17
CC(=O)N(Cc1cc(Cl)cc(Cl)c1)C1CCCN(c2nc3nc(F)ccc3[nH]2)C1 (stereo not drawn) [Compound 1887, N-(3,5-dichlorobenzyl)-N-(1-(5-fluoro-1H-imidazo[4,5-b]pyridin-2-yl)piperidin-3-yl)acetamide] | < 4.70 | 5.18
Clc1ccc(CNC2CCCN(c3nc4nc(Cl)ccc4[nH]3)C2)c(Cl)c1 (stereo not drawn) [Compound 1857, 1-(5-chloro-1H-imidazo[4,5-b]pyridin-2-yl)-N-(2,4-dichlorobenzyl) piperidin-3-amine] | 5.83 | 7.14
O=C(COc1ccc(Cl)cc1Cl)NCc1nc2ccccc2[nH]1 [Compound 1671, N-(1H-1,3-benzodiazol-2-ylmethyl)-2-(2,4-dichlorophenoxy)acetamide] | < 4.70 | 5.90
COc1ccc(Oc2cccc(NCc3nc4ccccc4[nH]3)n2)c(Cl)c1 [Compound 1924, N-((1H-benzo[d]imidazol-2-yl)methyl)-6-(2-chloro-4-methoxyphenoxy)pyridin-2-amine] | 5.48 | 6.78
O=C(NCCc1ccc(Cl)cc1Cl)NCc1nc2ccccc2[nH]1 [Compound 1702, 1-((1H-benzo[d]imidazol-2-yl)methyl)-3-(2,4-dichlorophenethyl)urea] | 5.30 | 8.05 and 7.96
O=C(Cc1cc(Cl)cc(Cl)c1)N1CCCC(c2nc3cc(F)ccc3[nH]2)C1 (stereo not drawn) [Compound 1744, 2-(3,5-dichlorophenyl)-1-(3-(5-fluoro-1H-benzo[d]imidazol-2-yl)piperidin-1-yl)ethanone] | 5.49 | 6.74
Clc1cc(Cl)cc(CNC2CCCC(c3nc4cc(Cl)cnc4[nH]3)C2)c1 (stereo not drawn) [Compound 1841, 3-(6-chloro-3H-imidazo[4,5-b]pyridin-2-yl)-N-(3,5-dichlorobenzyl) cyclohexanamine] | 5.43 | 5.20
Clc1ccc(CN2CCC[C@H](c3nc4nc(Cl)ccc4[nH]3)C2)c(Cl)c1 [Compound 1869, (S)-5-chloro-2-(1-(2,4-dichlorobenzyl)piperidin-3-yl)-1H-imidazo[4,5-b]pyridine] | 5.77 | 7.28
Clc1cc(Cl)cc(CN2CCC[C@@H](c3nc4cc(Cl)ccc4[nH]3)C2)c1 [Compound 1838, (R)-5-chloro-2-(1-(3,5-dichlorobenzyl)piperidin-3-yl)-1H-benzo[d]imidazole] | 5.07 | < 5.00
Clc1cc(Cl)cc(NCCNCc2nc3ccc(Cl)nc3[nH]2)c1 [Compound 1994, ({5-chloro-3H-imidazo[4,5-b]pyridin-2-yl}methyl)({2-[(3,5-dichlorophenyl)amino]ethyl})amine] | 5.85 | 7.23
O=C(Cc1ccc(Cl)cc1Cl)NCc1nc2ccc(Cl)cc2[nH]1 [Compound 1852, N-[(6-chloro-1H-1,3-benzodiazol-2-yl)methyl]-2-(2,4-dichlorophenyl)acetamide] | 5.26 | 7.12
CC(=O)N(Cc1cc(Cl)cc(Cl)c1)C1CCCC(c2nc3cc(Cl)ccc3[nH]2)C1 (stereo not drawn) [Compound 1861, N-(3-(5-chloro-1H-benzo[d]imidazol-2-yl)cyclohexyl)-N-(3,5-dichlorobenzyl)acetamide] | 5.35 | 5.83
